Assay results reported in PubChem BioAssay AID328 (DTP/NCI, 2004).
Where “and” joins values, the source holds several entries; their conditions need not be identical. Equal values may be shown once. Toxic doses and inconclusive results are not listed.

System: BDF1 mice, P388 leukemia ip, median survival T/C
Test: NCI In Vivo Anticancer Drug Screen. Data for tumor model P388 Leukemia (intraperitoneal) in B6D2F1 (BDF1) mice
Settings: endpoint: median survival time, higher = longer survival
Procedure, shortened: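 Reported as T/C, where T is the survival measurement in dosed animals and C the same measurement in vehicle controls.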

[1] = dose: 100.0 mg/kg/injection, schedule: Q04DX003 (ip), vehicle: saline
[2] = dose: 200.0 mg/kg/injection, schedule: Q01DX009 (ip), vehicle: saline
[3] = dose: 200.0 mg/kg/injection, schedule: Q04DX003 (ip), vehicle: saline
[4] = dose: 400.0 mg/kg/injection, schedule: Q01DX009 (ip), vehicle: saline
[5] = dose: 400.0 mg/kg/injection, schedule: Q04DX003 (ip), vehicle: saline
[6] = dose: 25.0 mg/kg/injection, schedule: Q01DX009 (ip), vehicle: saline

With `O=S(=O)(O)c1ccc(Br)cc1` the T/C (dose: 100.0 mg/kg/injection, schedule: Q01DX009 (ip), vehicle: saline) was 92 % of control, the T/C [1] was 115 % of control and the T/C [2] was 107 % of control. The T/C [3] was 110 % of control, the T/C [4] was 100 % of control and the T/C [5] was 115 % of control.
In the case of `Cc1cccc[n+]1CCC(N)=O`, the T/C (dose: 6.25 mg/kg/injection, schedule: Q01DX009 (ip), vehicle: saline) is reported as 92 % of control, the T/C (dose: 12.5 mg/kg/injection, schedule: Q01DX009 (ip), vehicle: saline) is reported as 117 % of control and the T/C [6] is reported as 103 % of control.
For `CC(C)Cn1cnc2c(Sc3c([N+](=O)[O-])ncn3C)nc(N)nc21`, the T/C (dose: 67.0 mg/kg/injection, schedule: Q01DX009 (ip), vehicle: Klucel (hydroxypropylcellulose) (HPC)) was 115 % of control, the T/C (dose: 200.0 mg/kg/injection, schedule: Q01DX009 (ip), vehicle: Klucel (hydroxypropylcellulose) (HPC)) was 91 % of control and 104 % of control and the T/C (dose: 400.0 mg/kg/injection, schedule: Q01DX009 (ip), vehicle: Klucel (hydroxypropylcellulose) (HPC)) was 86 % of control. The T/C (dose: 400.0 mg/kg/injection, schedule: Q04DX003 (ip), vehicle: Klucel (hydroxypropylcellulose) (HPC)) was 118 % of control.
For `OCCNc1ccc(I)cc1`, the T/C (dose: 100.0 mg/kg/injection, schedule: Q04DX003 (ip), vehicle: other) was 113 % of control, the T/C (dose: 200.0 mg/kg/injection, schedule: Q04DX003 (ip), vehicle: other) was 122 % of control and the T/C (dose: 400.0 mg/kg/injection, schedule: Q04DX003 (ip), vehicle: other) was 104 % of control.
In the case of `CC(CCC(=O)NC12CC3CC(CC(C3)C1)C2)C1CCC2C3C(OC=O)CC4CC(OC=O)CCC4(C)C3CC(OC=O)C12C` (stereo unspecified), the T/C (dose: 12.5 mg/kg/injection, schedule: Q04DX002 (ip), vehicle: saline with Tween-80) is reported as 98 % of control, the T/C (dose: 25.0 mg/kg/injection, schedule: Q04DX002 (ip), vehicle: saline with Tween-80) is reported as 100 % of control and the T/C (dose: 50.0 mg/kg/injection, schedule: Q04DX002 (ip), vehicle: saline with Tween-80) is reported as 100 % of control. The T/C (dose: 200.0 mg/kg/injection, schedule: Q04DX002 (ip), vehicle: saline with Tween-80) was 88 % of control and the T/C (dose: 400.0 mg/kg/injection, schedule: Q04DX002 (ip), vehicle: saline with Tween-80) was 98 % of control.
In the case of `CNNCc1ccc(C(=O)NC(N)=O)cc1`, the T/C [1] is reported as 95 % of control, the T/C (dose: 133.0 mg/kg/injection, schedule: Q01DX009 (ip), vehicle: saline) is reported as 111 % of control and the T/C [2] is reported as 100 % of control. For the same compound, the T/C [3] was 95 % of control, the T/C [4] was 107 % of control and the T/C [5] was 113 % of control.
In the case of `COC(=O)C1C2CCc3cc(OC)ccc3C2CC(=O)C1(C)C(=O)OC` (stereo unspecified), the T/C (dose: 100.0 mg/kg/injection, schedule: Q04DX003 (sc), vehicle: steriod suspending solution) is reported as 109 % of control, the T/C (dose: 200.0 mg/kg/injection, schedule: Q04DX003 (sc), vehicle: steriod suspending solution) is reported as 90 % of control and the T/C (dose: 400.0 mg/kg/injection, schedule: Q04DX003 (sc), vehicle: steriod suspending solution) is reported as 95 % of control.
For `CC(C)=NNC(=O)C1CCN1C(c1ccccc1)c1ccccc1` (stereo unspecified), the T/C (dose: 50.0 mg/kg/injection, schedule: Q01DX001 (ip), vehicle: saline with Tween-80) was 117 % of control and the T/C (dose: 100.0 mg/kg/injection, schedule: Q01DX001 (ip), vehicle: saline with Tween-80) was 102 % of control.
In the case of `CCOc1ccc(N2CC(=O)N3CCCC(c4ccccc4)N3C(=O)C2)cc1` (stereo unspecified), the T/C (dose: 50.0 mg/kg/injection, schedule: Q01DX005 (ip), vehicle: saline with Tween-80) is reported as 108 % of control, the T/C (dose: 100.0 mg/kg/injection, schedule: Q01DX005 (ip), vehicle: saline with Tween-80) is reported as 94 % of control and the T/C (dose: 200.0 mg/kg/injection, schedule: Q01DX005 (ip), vehicle: saline with Tween-80) is reported as 94 % of control.
With `CC1CN1P(=O)(N1CCCC1)N1CC1C` (stereo unspecified) the T/C (dose: 12.5 mg/kg/injection, schedule: Q04DX003 (ip), vehicle: saline) was 102 % of control, the T/C [6] was 156 % of control and the T/C (dose: 25.0 mg/kg/injection, schedule: Q04DX003 (ip), vehicle: saline) was 105 % of control. For the same compound, the T/C (dose: 32.0 mg/kg/injection, schedule: Q01DX009 (ip), vehicle: saline) was 155 % of control, the T/C (dose: 37.5 mg/kg/injection, schedule: Q01DX009 (ip), vehicle: saline) was 173 % of control and the T/C (dose: 50.0 mg/kg/injection, schedule: Q04DX003 (ip), vehicle: saline) was 169 % of control. The T/C (dose: 64.0 mg/kg/injection, schedule: Q01DX009 (ip), vehicle: saline) was 87 % of control and the T/C [1] was 179 % of control.
In the case of `NC(=O)c1cc([N+](=O)[O-])ccc1N`, the T/C (dose: 100.0 mg/kg/injection, schedule: Q04DX003 (ip), vehicle: saline sonified) is reported as 115 % of control, the T/C (dose: 200.0 mg/kg/injection, schedule: Q04DX003 (ip), vehicle: saline sonified) is reported as 110 % of control and the T/C (dose: 400.0 mg/kg/injection, schedule: Q04DX003 (ip), vehicle: saline sonified) is reported as 120 % of control.
